Laboratory results from patent US12077503B2, “Substituted cyclic amides and their use as herbicides” (FMC CORPORATION, priority 2015, dated 2024).

Experiments:
Assay type in all cases: in vivo
[1] = test system: velvetleaf (Abutilon theophrasti); test: Test G Post-Emergence Protocol; settings: Abutilon theophrasti, post-emergence, 312 h, read-out: Velvetleaf damage rating; for pest or weed control at 15.625 g/ha: 15.625 g ai/ha, evaluated after 13 days (100=total damage to plant; 0=no damage to plant); for pest or weed control at 62.5 g/ha: 62.5 g ai/ha; for pest or weed control at 62.5 g/ha / pest or weed control at 250 g/ha: evaluated after 13 days, 100=total damage to plant, 0=no damage to plant; for pest or weed control at 250 g/ha: 250 g ai/ha
Method in brief: (§1)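 Values are percent visual injury at 13 days after treatment (0 none, 100 total). Treatment was a post-emergence spray at 15.625, 62.5 or 250 g/ha on 8-day-old pot plants kept at 24/16 °C.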

[2] = test system: giant foxtail (Setaria faberi); test: Test G Post-Emergence Protocol; settings: Setaria faberi, post-emergence, 312 h, read-out: Foxtail, Giant damage rating; for pest or weed control at 15.625 g/ha: 15.625 g ai/ha, evaluated after 13 days (100=total damage to plant; 0=no damage to plant); for pest or weed control at 62.5 g/ha: 62.5 g ai/ha; for pest or weed control at 62.5 g/ha / pest or weed control at 250 g/ha: evaluated after 13 days, 100=total damage to plant, 0=no damage to plant; for pest or weed control at 250 g/ha: 250 g ai/ha
Method in brief: as §1

[3] = test system: redroot pigweed (Amaranthus retroflexus); test: Test G Post-Emergence Protocol; settings: Amaranthus retroflexus, post-emergence, 312 h, read-out: Pigweed, Redroot damage rating; for pest or weed control at 15.625 g/ha: 15.625 g ai/ha, evaluated after 13 days (100=total damage to plant; 0=no damage to plant); for pest or weed control at 62.5 g/ha: 62.5 g ai/ha; for pest or weed control at 62.5 g/ha / pest or weed control at 250 g/ha: evaluated after 13 days, 100=total damage to plant, 0=no damage to plant; for pest or weed control at 250 g/ha: 250 g ai/ha
Method in brief: as §1

[4] = test system: ivy-leaved morning glory (Ipomoea hederacea); test: Test G Post-Emergence Protocol; settings: Ipomoea, post-emergence, 312 h, read-out: Morningglory, Ivy-leaved damage rating; for pest or weed control at 15.625 g/ha: 15.625 g ai/ha, evaluated after 13 days (100=total damage to plant; 0=no damage to plant); for pest or weed control at 62.5 g/ha: 62.5 g ai/ha; for pest or weed control at 62.5 g/ha / pest or weed control at 250 g/ha: evaluated after 13 days, 100=total damage to plant, 0=no damage to plant; for pest or weed control at 250 g/ha: 250 g ai/ha
Method in brief: as §1

corn (Zea mays) [5] = test: Test G Post-Emergence Protocol; settings: Zea mays, post-emergence, 312 h, read-out: Corn damage rating; for plant injury at 15.625 g/ha: 15.625 g ai/ha, evaluated after 13 days (100=total damage to plant; 0=no damage to plant); for plant injury at 62.5 g/ha: 62.5 g ai/ha; for plant injury at 62.5 g/ha / plant injury at 250 g/ha: evaluated after 13 days, 100=total damage to plant, 0=no damage to plant; for plant injury at 250 g/ha: 250 g ai/ha
Method in brief: as §1

[6] = test system: barnyardgrass (Echinochloa crus-galli); test: Test G Post-Emergence Protocol; settings: Echinochloa crus-galli, post-emergence, 312 h, read-out: Barnyardgrass damage rating; for pest or weed control at 15.625 g/ha: 15.625 g ai/ha, evaluated after 13 days (100=total damage to plant; 0=no damage to plant); for pest or weed control at 62.5 g/ha: 62.5 g ai/ha; for pest or weed control at 62.5 g/ha / pest or weed control at 250 g/ha: evaluated after 13 days, 100=total damage to plant, 0=no damage to plant; for pest or weed control at 250 g/ha: 250 g ai/ha
Method in brief: as §1

[7] = test system: velvetleaf (Abutilon theophrasti); test: Test G Pre-Emergence Protocol; settings: Abutilon theophrasti, pre-emergence, 312 h, evaluated after 13 days; for pest or weed control at 15.625 g/ha: 15.625 g ai/ha; for pest or weed control at 15.625 g/ha / pest or weed control at 250 g/ha: read-out: Velvetleaf damage rating (100=total damage to plant; 0=no damage to plant); for pest or weed control at 62.5 g/ha: 62.5 g ai/ha, 100=total damage to plant, 0=no damage to plant, read-out: Velvetleaf damage rating; for pest or weed control at 250 g/ha: 250 g ai/ha
Method in brief: (§2)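 Test compound in 0.5% Tween 20 acetone/water (50:50) was applied at three rates (15.625, 62.5, 250 g/ha) to soil sown one day earlier. After 13 days plants were scored for injury, where 0 means unaffected and 100 means completely damaged.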

[8] = test system: giant foxtail (Setaria faberi); test: Test G Pre-Emergence Protocol; settings: Setaria faberi, pre-emergence, 312 h, evaluated after 13 days; for pest or weed control at 15.625 g/ha: 15.625 g ai/ha; for pest or weed control at 15.625 g/ha / pest or weed control at 250 g/ha: read-out: Foxtail, Giant damage rating (100=total damage to plant; 0=no damage to plant); for pest or weed control at 62.5 g/ha: 62.5 g ai/ha, 100=total damage to plant, 0=no damage to plant, read-out: Foxtail, Giant damage rating; for pest or weed control at 250 g/ha: 250 g ai/ha
Method in brief: as §2

[9] = test system: redroot pigweed (Amaranthus retroflexus); test: Test G Pre-Emergence Protocol; settings: Amaranthus retroflexus, pre-emergence, 312 h, evaluated after 13 days; for pest or weed control at 15.625 g/ha: 15.625 g ai/ha; for pest or weed control at 15.625 g/ha / pest or weed control at 250 g/ha: read-out: Pigweed, Redroot damage rating (100=total damage to plant; 0=no damage to plant); for pest or weed control at 62.5 g/ha: 62.5 g ai/ha, 100=total damage to plant, 0=no damage to plant, read-out: Pigweed, Redroot damage rating; for pest or weed control at 250 g/ha: 250 g ai/ha
Method in brief: as §2

[10] = test system: ivy-leaved morning glory (Ipomoea hederacea); test: Test G Pre-Emergence Protocol; settings: Ipomoea, pre-emergence, 312 h, evaluated after 13 days; for pest or weed control at 15.625 g/ha: 15.625 g ai/ha; for pest or weed control at 15.625 g/ha / pest or weed control at 250 g/ha: read-out: Morningglory, Ivy-leaved damage rating (100=total damage to plant; 0=no damage to plant); for pest or weed control at 62.5 g/ha: 62.5 g ai/ha, 100=total damage to plant, 0=no damage to plant, read-out: Morningglory, Ivy-leaved damage rating; for pest or weed control at 250 g/ha: 250 g ai/ha
Method in brief: as §2

corn (Zea mays) [11] = test: Test G Pre-Emergence Protocol; settings: Zea mays, pre-emergence, 312 h, evaluated after 13 days; for plant injury at 15.625 g/ha: 15.625 g ai/ha; for plant injury at 15.625 g/ha / plant injury at 250 g/ha: read-out: Corn damage rating (100=total damage to plant; 0=no damage to plant); for plant injury at 62.5 g/ha: 62.5 g ai/ha, 100=total damage to plant, 0=no damage to plant, read-out: Corn damage rating; for plant injury at 250 g/ha: 250 g ai/ha
Method in brief: as §2

[12] = test system: barnyardgrass (Echinochloa crus-galli); test: Test G Pre-Emergence Protocol; settings: Echinochloa crus-galli, pre-emergence, 312 h, evaluated after 13 days; for pest or weed control at 15.625 g/ha: 15.625 g ai/ha; for pest or weed control at 15.625 g/ha / pest or weed control at 250 g/ha: read-out: Barnyardgrass damage rating (100=total damage to plant; 0=no damage to plant); for pest or weed control at 62.5 g/ha: 62.5 g ai/ha, 100=total damage to plant, 0=no damage to plant, read-out: Barnyardgrass damage rating; for pest or weed control at 250 g/ha: 250 g ai/ha
Method in brief: as §2

SMILES	pest or weed control at 15.625 g/ha [1] [%]	pest or weed control at 62.5 g/ha [1] [%]	pest or weed control at 250 g/ha [1] [%]	pest or weed control at 15.625 g/ha [2] [%]	pest or weed control at 62.5 g/ha [2] [%]	pest or weed control at 250 g/ha [2] [%]	pest or weed control at 15.625 g/ha [3] [%]	pest or weed control at 62.5 g/ha [3] [%]	pest or weed control at 250 g/ha [3] [%]	pest or weed control at 15.625 g/ha [4] [%]	pest or weed control at 62.5 g/ha [4] [%]	pest or weed control at 250 g/ha [4] [%]	plant injury at 15.625 g/ha (corn (Zea mays) [5]) [%]	plant injury at 62.5 g/ha (corn (Zea mays) [5]) [%]	plant injury at 250 g/ha (corn (Zea mays) [5]) [%]	pest or weed control at 15.625 g/ha [6] [%]	pest or weed control at 62.5 g/ha [6] [%]	pest or weed control at 250 g/ha [6] [%]	pest or weed control at 15.625 g/ha [7] [%]	pest or weed control at 62.5 g/ha [7] [%]	also measured
CN1C[C@H](c2ccc(C(F)(F)F)cc2)[C@@H](C(=O)Nc2cnccc2C#N)C1=O (racemic) [Compound 1760]	0	0	10	0	0	20	0	0	0	0	0	20	0	0	10	0	0	10	0	0	pest or weed control at 250 g/ha [7]: 0%; pest or weed control at 15.625 g/ha [8]: 0%; pest or weed control at 62.5 g/ha [8]: 0%; pest or weed control at 250 g/ha [8]: 30%; pest or weed control at 15.625 g/ha [9]: 0%; pest or weed control at 62.5 g/ha [9]: 0%; pest or weed control at 250 g/ha [9]: 0%; pest or weed control at 15.625 g/ha [10]: 0%; pest or weed control at 62.5 g/ha [10]: 0%; pest or weed control at 250 g/ha [10]: 0%; plant injury at 15.625 g/ha (corn (Zea mays) [11]): 0%; plant injury at 62.5 g/ha (corn (Zea mays) [11]): 0%; plant injury at 250 g/ha (corn (Zea mays) [11]): 0%; pest or weed control at 15.625 g/ha [12]: 0%; pest or weed control at 62.5 g/ha [12]: 0%; pest or weed control at 250 g/ha [12]: 0%
C=Cc1cccc([C@@H]2CN(C)C(=O)[C@H]2C(=O)Nc2cccc(F)c2F)c1 (racemic) [Compound 1762]	10	0	70	60	70	80	20	0	10	30	60	70	20	30	80	10	50	80	0	0	pest or weed control at 250 g/ha [7]: 10%; pest or weed control at 15.625 g/ha [8]: 70%; pest or weed control at 62.5 g/ha [8]: 80%; pest or weed control at 250 g/ha [8]: 80%; pest or weed control at 15.625 g/ha [9]: 0%; pest or weed control at 62.5 g/ha [9]: 10%; pest or weed control at 250 g/ha [9]: 20%; pest or weed control at 15.625 g/ha [10]: 0%; pest or weed control at 62.5 g/ha [10]: 10%; pest or weed control at 250 g/ha [10]: 10%; plant injury at 15.625 g/ha (corn (Zea mays) [11]): 0%; plant injury at 62.5 g/ha (corn (Zea mays) [11]): 30%; plant injury at 250 g/ha (corn (Zea mays) [11]): 80%; pest or weed control at 15.625 g/ha [12]: 70%; pest or weed control at 62.5 g/ha [12]: 80%; pest or weed control at 250 g/ha [12]: 80%
